This note sets out measurements from patent publication US7868003B2, “Substituted 4-phenyltetrahydroisoquinolines, pharmaceutical compositions comprising them and therapeutic methods for their use” (Sanofi-Aventis, priority 2005, dated 2011).

Counter-ions that a name gives are not always drawn.

The test deals with T1, sodium-proton exchanger subtype 3 (NHE3) (Homo sapiens, UniProt P48764).
T1 construct: expressed in transfected cells
T1 sequence (P48764 26-834): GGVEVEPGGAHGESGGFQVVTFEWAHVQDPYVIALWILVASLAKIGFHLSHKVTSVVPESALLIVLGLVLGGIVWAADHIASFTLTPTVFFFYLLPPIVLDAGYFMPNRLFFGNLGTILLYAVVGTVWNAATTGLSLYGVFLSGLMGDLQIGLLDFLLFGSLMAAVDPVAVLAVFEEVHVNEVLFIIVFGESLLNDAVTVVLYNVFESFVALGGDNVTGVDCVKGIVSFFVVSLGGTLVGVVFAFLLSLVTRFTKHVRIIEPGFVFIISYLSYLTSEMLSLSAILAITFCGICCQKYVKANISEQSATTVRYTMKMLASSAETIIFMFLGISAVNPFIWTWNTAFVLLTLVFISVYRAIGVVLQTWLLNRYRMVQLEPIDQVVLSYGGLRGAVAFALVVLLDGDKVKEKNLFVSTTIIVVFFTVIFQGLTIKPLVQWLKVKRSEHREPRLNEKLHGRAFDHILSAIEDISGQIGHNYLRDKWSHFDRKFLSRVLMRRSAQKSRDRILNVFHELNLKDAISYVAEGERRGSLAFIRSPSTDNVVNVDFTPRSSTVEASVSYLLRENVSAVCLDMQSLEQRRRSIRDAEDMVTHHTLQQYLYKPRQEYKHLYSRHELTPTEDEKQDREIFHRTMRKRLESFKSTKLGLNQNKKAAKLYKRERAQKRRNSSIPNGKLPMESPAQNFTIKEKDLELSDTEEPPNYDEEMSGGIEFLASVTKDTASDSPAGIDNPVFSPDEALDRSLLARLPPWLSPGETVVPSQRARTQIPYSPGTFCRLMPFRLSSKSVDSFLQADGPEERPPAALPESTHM
Briefly: recovery of intracellular pH (pHi) of LAP1 cells stably expressing NHE3 after acidification (BCECF, FLIPR). Conditions: pH recovery in percent of maximum recovery, XLFit, read-out: IC50 (inhibitory action on the NHE3). In kind it is cell-based. Here is the method: In this test, the recovery in the intracellular pH (pHi) of LAP1 cells, which stably express the sodium-proton exchanger subtype 3 (NHE3), after an acidification was determined. This recovery sets in even under bicarbonate-free conditions in the case of functioning NHE3. To this end, the pHi was determined with the pH-sensitive fluorescent dye BCECF (Molecular Probes, Eugene, Oreg., USA; the precursor BCECF-AM is used). The cells were first incubated with BCECF (5 μM BCECF-AM) in NH4Cl buffer (NH4Cl buffer: 115 mM cholineCl, 20 mM NH4Cl, 5 mM KCl, 1 mM CaCl2, 1 mM MgCl2, 20 mM Hepes, 5 mM glucose; a pH of 7.4 is established with 1 M KOH). The intracellular acidification was induced by washing the cells incubated in NH4Cl buffer with NH4Cl-free buffer (133.8 mM choline chloride, 4.7 mM KCl, 1.25 mM CaCl2, 1.25 mM MgCl2, 0.97 mM K2HPO4, 0.23 mM KH2PO4, 5 mM Hepes, 5 mM glucose; a pH of 7.4 is established with 1 M KOH). After the washing operation, 90 μl of the NH4Cl-free buffer were left on the cells. The pH recovery was started by the addition of 90 μl of Na^+-containing buffer (133.8 mM NaCl, 4.7 mM KCl, 1.25 mM CaCl2, 1.25 mM MgCl2, 0.97 mM Na2HPO4, 0.23 mM NaH2PO4, 10 mM Hepes, 5 mM glucose; a pH of 7.4 is established with 1 M NaOH) in the analytical instrument (FLIPR, “Fluorometric Imaging Plate Reader”, Molecular Devices, Sunnyvale, Calif., USA). The BCECF fluorescence was determined at an excitation wavelength of 498 nm and the FLIPR emission filter 1 (band gap from 510 to 570 nm). The subsequent changes in fluorescence were registered for two minutes as a measure of the pH recovery. For the calculation of the NHE3-inhibitory potential of the tested substances, the cells were tested first in buffers in which full pH recovery, or none at all, took place. For full pH recovery (100%), the cells were incubated in Na^+-containing buffer (see above), and Na^+-free buffer for the determination of the 0% value (see above). The substances to be tested were made up in Na^+-containing buffer. The recovery in the intracellular pH at each tested concentration of a substance was expressed in percent of the maximum recovery. From the percentages of the pH recovery, the IC50 value of the particular substance for the NHE3 was calculated by means of the program XLFit (idbs, Surrey, UK).
The IC50 is the point on the concentration scale where inhibition reaches its midpoint. Take `CN1Cc2c(Br)cc(Cl)cc2C(c2ccccc2N2CCCC2=O)C1` (stereo not drawn) [Example 64, 1-[2-(8-Bromo-6-chloro-2-methyl-1,2,3,4-tetrahydroisoquinolin-4-yl)-phenyl]pyrrolidin-2-one]: the IC50 worked out at 250 nM. Then `CN1Cc2c(Cl)cc(Cl)cc2[C@H](c2cccc(N3CCCCC3=O)c2)C1` [Example 38, 1-[3-((S)-6,8-Dichloro-2-methyl-1,2,3,4-tetrahydroisoquinolin-4-yl)phenyl]-piperidin-2-one], with 461 nM; and `CN1Cc2c(Cl)cc(Cl)cc2[C@H](c2ccc(N3C(=O)CCCC3=O)cc2)C1` [Example 16], with 222 nM; and `CSCCC1NC(=O)N(c2ccccc2[C@@H]2CN(C)Cc3c(Cl)cc(Cl)cc32)C1=O` (mixture of isomers) [Example 57, (R and S)-3-[2-((R)-6,8-Dichloro-2-methyl-1,2,3,4-tetrahydroisoquinolin-4-yl)phenyl]-5-(2-methylsulfanylethyl)imidazolidine-2,4-dione trifluoroacetic acid salt], with 1400 nM.

In the case of `CC1CC(C)C(=O)N(c2ccccc2[C@@H]2CN(C)Cc3c(Cl)cc(Cl)cc32)C1=O` (stereo partly drawn) [Example 29], the IC50 worked out at 1200 nM. Then `CN1Cc2c(Cl)cc(Cl)cc2[C@H](c2ccccc2N2CCCS2(=O)=O)C1` [Example 51, (R)-6,8-Dichloro-4-[2-(1,1-dioxo-1-λ^6-isothiazolidin-2-yl)phenyl]-2-methyl-1,2,3,4-tetrahydroisoquinoline hydrochloride], with 141 nM; and `CN1Cc2c(Cl)cc(Cl)cc2[C@H](c2ccccc2N2CCOC2=O)C1` [Example 46, 3-[2-((R)-6,8-Dichloro-2-methyl-1,2,3,4-tetrahydroisoquinolin-4-yl)phenyl]-oxazolidin-2-one], with 220 nM. Then `CN1Cc2c(Cl)cc(Cl)cc2C(c2ccc(N3CCNS3(=O)=O)cc2)C1` (stereo not drawn) [Example 8, 6,8-Dichloro-4-[4-(1,1-dioxo-1-λ^6-[1,2,5]thiadiazolidin-2-yl)phenyl]-2-methyl-1,2,3,4-tetrahydroisoquinoline], with 2590 nM; and `CN1Cc2c(Cl)cc(Cl)cc2[C@H](c2ccc(N3C(=O)CCC3=O)cc2)C1` [Example 14], with 119 nM; and `CC(C)CC1NC(=O)N(c2ccccc2[C@@H]2CN(C)Cc3c(Cl)cc(Cl)cc32)C1=O` (stereo partly drawn) [Example 58], with 7400 nM. For `CN1Cc2c(Cl)cc(Cl)cc2[C@H](c2cccc(N3C(=O)C=CC3=O)c2)C1` [Example 10], the IC50 came to 47 nM. Then `CN1Cc2c(Cl)cc(Cl)cc2[C@H](c2ccccc2N2C(=O)CCC2=O)C1` [Example 7, 1-[2-((R)-6,8-Dichloro-2-methyl-1,2,3,4-tetrahydroisoquinolin-4-yl)phenyl]-pyrrolidine-2,5-dione hydrochloride], with 39 nM; and `CN1Cc2c(Cl)cc(Cl)cc2[C@H](c2ccccc2-n2cc[nH]c2=O)C1` [Example 40, 1-[2-((R)-6,8-Dichloro-2-methyl-1,2,3,4-tetrahydroisoquinolin-4-yl)phenyl]-1,3-dihydroimidazol-2-one hydrochloride], with 131 nM. Then `CN1Cc2c(Cl)cc(Cl)cc2[C@@H](c2ccccc2N2C(=O)CCC2=O)C1` [Example 34], with 29200 nM; and `O=C1CCC(=O)N1c1ccccc1[C@@H]1CNCc2c(Cl)cc(Cl)cc21` [Example 52, 1-[2-((R)-6,8-Dichloro-1,2,3,4-tetrahydroisoquinolin-4-yl)phenyl]-pyrrolidine-2,5-dione trifluoroacetic acid salt], with 12300 nM; and `CN1Cc2c(Cl)cc(Cl)cc2[C@H](c2cccc(N3C(=O)CNC3=O)c2)C1` [Example 4, 3-[3-((S)-6,8-Dichloro-2-methyl-1,2,3,4-tetrahydroisoquinolin-4-yl)phenyl]-imidazolidine-2,4-dione hydrochloride], with 129 nM. Then `CN1Cc2c(Cl)cc(Cl)cc2[C@H](c2ccccc2N2CCCC2=O)C1` [Example 35, 1-[2-((R)-6,8-Dichloro-2-methyl-1,2,3,4-tetrahydroisoquinolin-4-yl)phenyl]-pyrrolidin-2-one trifluoroacetate], with 82 nM. Consider `CN1Cc2c(Cl)cc(Cl)cc2[C@H](c2ccccc2N2C(=O)COC2=O)C1` [Example 43, 3-[2-((R)-6,8-Dichloro-2-methyl-1,2,3,4-tetrahydroisoquinolin-4-yl)phenyl]-oxazolidine-2,4-dione], for which the 50% inhibitory concentration (IC50) amounted to 49 nM. Then `CN1CC(=O)N(c2ccccc2[C@@H]2CN(C3CC3)Cc3c(Cl)cc(Cl)cc32)C1=O` [Example 55, 3-[2-((R)-6,8-Dichloro-2-cyclopropyl-1,2,3,4-tetrahydroisoquinolin-4-yl)-phenyl]-1-methylimidazolidine-2,4-dione hydrochloride], with 120 nM. Then `CN1Cc2c(Cl)cc(Cl)cc2[C@H](c2ccccc2N2C(=O)CSC2=O)C1` [Example 42, 3-[2-((R)-6,8-Dichloro-2-methyl-1,2,3,4-tetrahydroisoquinolin-4-yl)phenyl]-thiazolidine-2,4-dione], with 69 nM. For `CN1Cc2c(Cl)cc(Cl)cc2[C@H](c2ccccc2N2C(=O)COCC2=O)C1` [Example 44, 4-[2-((R)-6,8-Dichloro-2-methyl-1,2,3,4-tetrahydroisoquinolin-4-yl)phenyl]-morpholine-3,5-dione trifluoroacetic acid salt], the IC50 is 220 nM.
